The NIST ThermoML archive (doi:10.1021/acs.jced.8b00692)
± gives the expanded uncertainty stated by the source.

Assay: xn = mol fraction of the nth substance listed
Details: 102 kPa, Liquid, x2 = 0; for viscosity: Concentric cylinders viscometry; for mass density: Vibrating tube method

| viscosity (293.15 K) | mass density (293.15 K) | viscosity (303.15 K) | mass density (303.15 K) | viscosity (313.15 K) | mass density (313.15 K) | viscosity (323.15 K) | mass density (323.15 K) | viscosity (333.15 K) | mass density (333.15 K) | viscosity (343.15 K) | mass density (343.15 K) | viscosity (353.15 K) | mass density (353.15 K) | viscosity (363.15 K) | mass density (363.15 K) | viscosity (373.15 K) | mass density (373.15 K) | Compound |
| --- | --- | --- | --- | --- | --- | --- | --- | --- | --- | --- | --- | --- | --- | --- | --- | --- | --- | --- |
| 3.47 ± 0.02 mPa·s | 773.37 ± 0.81 kg/m3 | 2.76 ± 0.02 mPa·s | 766.43 ± 0.81 kg/m3 | 2.24 ± 0.02 mPa·s | 759.51 ± 0.81 kg/m3 | 1.86 ± 0.01 mPa·s | 752.61 ± 0.81 kg/m3 | 1.56 ± 0.01 mPa·s | 745.69 ± 0.81 kg/m3 | 1.35 ± 0.01 mPa·s | 738.8 ± 0.8 kg/m3 | 1.15 ± 0.01 mPa·s | 731.9 ± 0.8 kg/m3 | 1.02 ± 0.01 mPa·s | 724.9 ± 0.8 kg/m3 | 0.885 ± 0.012 mPa·s | 717.9 ± 0.8 kg/m3 | CCCCCCCCCCCCCCCC [hexadecane] + CCCCCCCCC1CCCCC1 |
| 3.47 ± 0.02 mPa·s | 773.37 ± 0.81 kg/m3 | 2.76 ± 0.02 mPa·s | 766.43 ± 0.81 kg/m3 | 2.24 ± 0.02 mPa·s | 759.51 ± 0.81 kg/m3 | 1.86 ± 0.01 mPa·s | 752.61 ± 0.81 kg/m3 | 1.56 ± 0.01 mPa·s | 745.69 ± 0.81 kg/m3 | 1.35 ± 0.01 mPa·s | 738.8 ± 0.8 kg/m3 | 1.15 ± 0.01 mPa·s | 731.9 ± 0.8 kg/m3 | 1.02 ± 0.01 mPa·s | 724.9 ± 0.8 kg/m3 | 0.885 ± 0.012 mPa·s | 717.9 ± 0.8 kg/m3 | CCCCCCCCCCCCCCCC [hexadecane] + CCCCCCCCCC1CCCCC1 |
| 3.47 ± 0.02 mPa·s | 773.37 ± 0.81 kg/m3 | 2.76 ± 0.02 mPa·s | 766.43 ± 0.81 kg/m3 | 2.24 ± 0.02 mPa·s | 759.51 ± 0.81 kg/m3 | 1.86 ± 0.01 mPa·s | 752.61 ± 0.81 kg/m3 | 1.56 ± 0.01 mPa·s | 745.69 ± 0.81 kg/m3 | 1.35 ± 0.01 mPa·s | 738.8 ± 0.8 kg/m3 | 1.15 ± 0.01 mPa·s | 731.9 ± 0.8 kg/m3 | 1.02 ± 0.01 mPa·s | 724.9 ± 0.8 kg/m3 | 0.885 ± 0.012 mPa·s | 717.9 ± 0.8 kg/m3 | CCCCCCCCCCCCCCCC [hexadecane] + CCCCCCCCCCC1CCCCC1 |
| 3.47 ± 0.02 mPa·s | 773.37 ± 0.81 kg/m3 | 2.76 ± 0.02 mPa·s | 766.43 ± 0.81 kg/m3 | 2.24 ± 0.02 mPa·s | 759.51 ± 0.81 kg/m3 | 1.86 ± 0.01 mPa·s | 752.61 ± 0.81 kg/m3 | 1.56 ± 0.01 mPa·s | 745.69 ± 0.81 kg/m3 | 1.35 ± 0.01 mPa·s | 738.8 ± 0.8 kg/m3 | 1.15 ± 0.01 mPa·s | 731.9 ± 0.8 kg/m3 | 1.02 ± 0.01 mPa·s | 724.9 ± 0.8 kg/m3 | 0.885 ± 0.012 mPa·s | 717.9 ± 0.8 kg/m3 | CCCCCCCCCCCCCCCC [hexadecane] + CCCCCCCCCCCCC1CCCCC1 |
